“And” between values parts separate entries of the source, which are not always exact repeats. Identical values can stand only once. Like-named read-outs stand apart in the source and are kept apart here.
Columns and labels:
Bacillus subtilis spores = tested on: Bacillus subtilis spores
Description: A protocol analogous to that used for the food crops was employed for spore testing on stainless steel coupons. 3-1.75 cm×3.75 cm stainless steel coupons were each inoculated (front & back) with a total of 100 μL of Bacillus subtilis spores. The spores were allowed to dry and the three coupons were aseptically transferred to a Ziploc® bag. The remaining protocol used was similar to that of the food crops except that each coupon was neutralized in 8 mL of 10% thiosulfate solution and each coupon's solution was serially diluted and plated onto media.

[1] = tested on: E. coli, S. aureus, S. choleraesuis
[2] = tested on: streptomycin-resistant S. aureus; settings: 180° F.; for Log Post-Disinfection (CFU/g) / Log Reduction (CFU/g): DT 18 min
Description: (§1) The following experiments were performed using a system in accordance with the present invention. Food crops were pruned of inedible roots, leaves, etc., and weighed. A given food crop was then inoculated with a single challenge microorganism. All challenge microorganisms were purchased from ATCC as streptomycin-resistant strains-Esherichia coli (E. coli), Staphylococcus aureus (S. aureus), and Salmonella choleraesuis (S. choleraesuis). […] After inoculation, the crops were left to dry for 30 minutes to 1 hour. The crops were then placed in the Ziploc® bag and into the vacuum chamber. […] Parameters such as vacuum pressure, dispensing time, and sterilization wait time were varied in order to arrive at some conclusion concerning the optimum conditions for effective disinfection of the food crops. After the disinfection cycle had ended, the crops were neutralized in 50 mL of 10% thiosulfate solution contained in a sterile mastication bag.
(§2) The bag was then placed in a masticator and pulverized for 2 minutes. The liquid contents were then serially diluted and plated onto the appropriate agar medium. The plates were incubated at 37° C. for 24 hours and plate counts were performed. […] A log reduction in terms of CFU/g was calculated by subtracting the plate counts of the disinfected food from that of its respective control, as shown in Table 1.
(§3) Lettuce was used as the food crop while streptomycin-resistant E. coli was chosen as the challenge microorganism. […] Each food crop was inoculated with streptomycin-resistant strains of E. coli, S. aureus, and S. choleraesuis in separate experiments and 3 minutes was used as the dispense time in every run.

[3] = tested on: streptomycin-resistant S. choleraesuis; settings: Radishes; dispense time 3 min; 180° F.; 18 inch Hg; wait 0 min
Description: as §1, §2, §3

[4] = tested on: streptomycin-resistant E. coli; settings: 180° F.; for Log Post-Disinfection (CFU/g) / Log Reduction (CFU/g): DT 18 min
Description: as §1, §2, §3

[5] = stainless steel coupons, 12 minute dispense time, 180° F., 18 inch Hg, wait 0 min
[6] = Lettuce, VP 15 inch Hg, SW 15 min
[7] = Radishes, VP 15 inch Hg, SW 30 min
[8] = Radishes, VP 20 inch Hg, SW 5 min
[9] = Radishes, VP 20 inch Hg, SW 10 min
[10] = Radishes, VP 20 inch Hg, SW 15 min
[11] = Radishes, dispense time 3 min, 18 inch Hg, wait 0 min
[12] = Carrots, VP 15 inch Hg, SW 10 min
[13] = Carrots, VP 15 inch Hg, SW 15 min
[14] = Carrots, VP 15 inch Hg, SW 20 min
[15] = Carrots, VP 15 inch Hg, SW 30 min
[16] = Carrots, VP 17 inch Hg, SW 5 min
[17] = Carrots, VP 18 inch Hg, SW 10 min
[18] = Lettuce, VP 15 inch Hg, SW 10 min
[19] = Radishes, VP 15 inch Hg, SW 10 min
[20] = Radishes, VP 15 inch Hg, SW 15 min
[21] = Table 3, Lettuce, dispense time 3 min, 18 inch Hg, wait 0 min

Compound: OO [hydrogen peroxide]
- Log10 Post-Disinfection (CFU/cm^2) (Bacillus subtilis spores; [5]): 0 CFU/cm^2
- Log10 Reduction (CFU/cm^2) (Bacillus subtilis spores; [5]): 5.42 CFU/cm^2
- eradication of spores (Bacillus subtilis spores; within a 12 minute dispense time): completely eradicate spores
- log reductions for every combination of food crop and microbial challenge (Table 3) ([1]; 3 minutes dispense time): greater than 3
- average log reduction of all of the runs shown in Table 1 ([1]; all food crops, microbial challenges and parameters of Table 1): 4.63
- log reduction (lowest over all runs of Table 1) ([1]; no matter the food crop, microbial challenge or disinfection parameters): ≥ 2
- Log Post-Disinfection (CFU/g) [2, 6]: 0 CFU/g
- Log Reduction (CFU/g) [2, 6]: 6.81 CFU/g
- Log Post-Disinfection (CFU/g) [2, 7]: 0 CFU/g
- Log Reduction (CFU/g) [2, 7]: 6.33 CFU/g
- Log Post-Disinfection (CFU/g) [2, 8]: 0 CFU/g
- Log Reduction (CFU/g) [2, 8]: 6.09 CFU/g
- Log Post-Disinfection (CFU/g) [2, 9]: 0 CFU/g
- Log Reduction (CFU/g) [2, 9]: 6.09 CFU/g
- Log Post-Disinfection (CFU/g) [2, 10]: 1.61 CFU/g
- Log Reduction (CFU/g) [2, 10]: 4.48 CFU/g
- Log10 Post-Disinfection (CFU/g) [2, 11]: 0 CFU/g
- Log10 Reduction (CFU/g) [2, 11]: ≧5.25 CFU/g
- Log10 Post-Disinfection (CFU/g) [3]: 1.67 CFU/g and 1.95 CFU/g and 1.82 CFU/g
- Log Post-Disinfection (CFU/g) [4, 12]: 0 CFU/g
- Log Reduction (CFU/g) [4, 12]: 4.90 CFU/g
- Log Post-Disinfection (CFU/g) [4, 13]: 0 CFU/g
- Log Reduction (CFU/g) [4, 13]: 4.90 CFU/g
- Log Post-Disinfection (CFU/g) [4, 14]: 0 CFU/g
- Log Reduction (CFU/g) [4, 14]: 5.45 CFU/g
- Log Post-Disinfection (CFU/g) [4, 15]: 0 CFU/g
- Log Reduction (CFU/g) [4, 15]: 4.90 CFU/g
- Log Post-Disinfection (CFU/g) [4, 16]: 0 CFU/g
- Log Reduction (CFU/g) [4, 16]: 5.45 CFU/g
- Log Post-Disinfection (CFU/g) [4, 17]: 0 CFU/g
- Log Reduction (CFU/g) [4, 17]: 5.45 CFU/g
- Log Post-Disinfection (CFU/g) [4, 18]: 0 CFU/g
- Log Reduction (CFU/g) [4, 18]: 6.38 CFU/g
- Log Post-Disinfection (CFU/g) [4, 6]: 1.93 CFU/g
- Log Reduction (CFU/g) [4, 6]: 4.31 CFU/g
- Log Post-Disinfection (CFU/g) [4, 19]: 2.85 CFU/g
- Log Reduction (CFU/g) [4, 19]: 2.95 CFU/g
- Log Post-Disinfection (CFU/g) [4, 20]: 3.73 CFU/g
- Log Reduction (CFU/g) [4, 20]: 2.07 CFU/g
- Log10 Post-Disinfection (CFU/g) [4, 21]: 0 CFU/g
- Log10 Reduction (CFU/g) [4, 21]: ≧6.23 CFU/g

Source: patent publication US20050147527A1, “Microbial destruction using a gas phase decontaminant” (priority 2004, published 2005)
